Laboratory results as given in US20250295627A1 (Leibniz-Institut Fuer Neurobiologie, priority 2022, published 2025).
Like-named read-outs stand apart in the source and are kept apart here.

Assays:
[1] = estimated life-long consumption of turkey meat; cited from earlier work
[2] = test system: hippocampal primary neurons; experiment: Whole-cell voltage-clamp recording of mEPSCs; type: cell-based, rat
[3] = type: in vivo, mouse; conditions: 50 mg/kg daily oral, treated versus control animals
From the text: (§1) . For TBA2.1 mice (both sexes), treatment started at the age of 4 weeks. The animals were group housed and force fed for 4 weeks. […] Treatment in 5×FAD male mice started at the age of 12 weeks. Here, animals were single housed right away and given a choice between voluntary and forced feeding. […] During the course of the 7th week of treatment, animals were either subjected to perfusion to obtain their brains for subsequent immunohistochemistry or they were culled to obtained native brains for electrophysiological recordings.

TBA2.1 and 5×FAD mice [4] = experiment: Synaptic density in stratum lacunosum moleculare of CA1 after oral Nitarsone; type: in vivo, mouse
Method: (§2) Animals were anesthetized with ketamine/xylazine (Medistar) and transcardially perfused with 0.9% saline followed by 4% PFA. The brains were post-fixed in 4% PFA in PBS overnight, followed by immersion in 0.5 M sucrose for 24 h and then 1M sucrose for another 1 to 2 days or until the brains were sunken down. The brains were snap-frozen and cut into 35 μm thick coronal cryosections (Leica CM3050S, Leica-Microsystems). The sections were blocked in a buffer (0.3% TX-100, 10% NGS in PBS) for 30 min at RT, and incubated with primary antibodies diluted in the blocking solution, overnight at 4° C. Secondary antibodies were applied for 2 h at RT. Sections were counterstained with DAPI and mounted in Mowiol 4-88 (Merck Chemicals). For the detection of Aβ, the heat-based antigen retrieval method was used. For anti-Aβ staining, following permeabilization, brain sections were immersed into […] sodium citrate solution (Fluka, pH=9) for 30 min at 80° C. Imaging of nuclear pCREB/CREB immunoreactivities in cryosections was performed using a Leica TCS SP5 system (Leica-Microsystems). Images were acquired sequentially with a HCX ApoL20×/1.0 water objective, optical zoom 4. Sections were imaged with constant laser/detector settings along the z-axis with 400 nm step in a 512×512 pixel format.
. For TBA2.1 mice (both sexes), treatment started at the age of 4 weeks. […]

TBA2.1 and 5×FAD mice [5] = experiment: Y-maze object recognition short-term memory task; type: in vivo, mouse; conditions: 3 h between training and test, versus vehicle
From the text: as §1
Y-maze Object Recognition short-term memory task was performed according to (Creighton et al., 2019). During training session, two identical objects (3D printed rectangle) were placed at the end of arms B and C and the animal was left to explore both objects for 10 min. In order to assess short-term memory, retrieval performance was tested 3 h after training with one of the familiar objects replaced by a novel one (wooden cube). The mice were placed in the arena, and had 5 min to explore both objects. During both sessions the time animals explored the objects was scored, and a discrimination index was calculated, in the same manner as for the novel object recognition test.

TBA2.1 mice = experiment: Open-field test; type: in vivo, mouse
From the text: as §1
Locomotor activity was assessed using the Open-field test, performed in a square arena (45×45×45 cm) made of black Plexiglas and dimly illuminated. The animals were placed in the center of the arena, and were left to explore it for 10 min. The sessions were video recorded, and the distance travelled in the maze as well as the speed was tracked with ANY-maze Software 7.0 (Stoelting Co). Data were analyzed in 1 min bins.

CREB = type: in vivo, mouse; conditions: for CREB shutoff in dorsal hippocampal CA1: 50 mg/kg daily oral, 6 weeks
Method: as §2, §1
(§3) All quantifications were done within the distal CA1 region of the hippocampus. Fiji/ImageJ software (Schindelin et al., 2012) was used to calculate maximum intensity projection from five optical sections for each channel. CREB and pCREB immunoreactivity of every single nucleus in a 100 μm stretch was measured in arbitrary units of pixel intensity. ROls were defined based on NeuN and DAPI. The neuronal loss was quantified based on NeuN staining (the number of neurons/CA1 length). For the quantification of microglia and astrocytes the number of cells based on overlaid DAPI and Iba-1 or GFAP signal was quantified within the rectangular ROI. Aβ plaques were counted in the region where the neuronal loss was quantified.

TBA2.1 and 5×FAD mice [6] = experiment: Amyloid load (amyloid-β positive puncta) in CA1 after oral Nitarsone; type: in vivo, mouse
Method: Animals were anesthetized with ketamine/xylazine (Medistar) and transcardially perfused with 0.9% saline followed by 4% PFA. The brains were post-fixed in 4% PFA in PBS overnight, followed by immersion in 0.5 M sucrose for 24 h and then 1M sucrose for another 1 to 2 days or until the brains were sunken down. The brains were snap-frozen and cut into 35 μm thick coronal cryosections (Leica CM3050S, Leica-Microsystems). The sections were blocked in a buffer (0.3% TX-100, 10% NGS in PBS) for 30 min at RT, and incubated with primary antibodies diluted in the blocking solution, overnight at 4° C. Secondary antibodies were applied for 2 h at RT. Sections were counterstained with DAPI and mounted in Mowiol 4-88 (Merck Chemicals). For the detection of Aβ, the heat-based antigen retrieval method was used. […]
as §3, with “Fiji/ImageJ software (Schindelin et al., 2012) was used to calculate maximum intensity projection from five optical sections for each channel.” left out, “ROls were defined based on NeuN and DAPI.” left out

TBA2.1 and 5×FAD mice [7] = experiment: Acute hippocampal slices, CA1-LTP recordings; type: ex vivo, mouse; conditions: for basal synaptic transmission: bath application
Method: The 350 μm thick hippocampal slices were prepared according to a previously described protocol (Grochowska et al., 2017). Briefly, hippocampal slices were incubated in bubbling 95% 02, 5% CO2 ASCF solution for 2 h at 31+/−1° C. Field excitatory postsynaptic potentials (fEPSPs) were measured in stratum radiatum after stimulation of CA1 Schaffer collateral fibers with ACSF glass capillary microelectrodes (3-5 MΩ). fEPSPs were amplified by Extracellular Amplifier (EXT-02B, npi, Germany) and digitized at a sample frequency of 5 kHz by Digidata 1201 plus AD/Da converter (CED, UK). The strength of stimuli was adjusted to 25-35% of the maximum fEPSP slope values. Single stimuli were applied at 0.0333 Hz and averaged every 5 min. Stable baseline recordings were followed by tetanisation with 3×1 s stimulus trains at 100 Hz with a 10 min inter-train interval.
as §1

O=[N+]([O-])c1ccc([As](=O)(O)O)cc1 [Nitarsone, (4-nitrophenyl) arsonic acid]
increased lifetime risk of developing cancer [1]: 0.00031%
mEPSC amplitude ([2]; co-application of 5 µM Nitarsone with 500 nM Aβ1-42, 48 h): restored mEPSC amplitude
mEPSC amplitude and frequency ([2]; drug alone, 5 µM, 48 h): no effect on both measures
body weight [3]: no effect on the body weight
synapse loss in the stratum lacunosum moleculare (TBA2.1 and 5×FAD mice [4]; 5×FAD mice): clearly reduced synapse loss
synapse loss in the stratum lacunosum moleculare (TBA2.1 and 5×FAD mice [4]; TBA2.1 mice): clearly reduced synapse loss
discrimination performance, Y-maze object recognition (TBA2.1 and 5×FAD mice [5]; 5×FAD mice): improved discrimination performance
discrimination performance, Y-maze object recognition (TBA2.1 and 5×FAD mice [5]; TBA2.1 mice): improved discrimination performance
preference index (TBA2.1 mice; FIG. 11 panel L, TBA2.1 mice): does not influence preference index
distance travelled during open field arena exploration (TBA2.1 mice; FIG. 11 panel M, TBA2.1 mice): slightly normalizes increased distance travelled
preference index (TBA2.1 mice; FIG. 11 panel N, printed TBA2.1 mice): does not influence preference index
distance travelled during open field arena exploration (TBA2.1 mice; FIG. 11 panel O, printed TBA2.1 mice): slightly normalizes increased distance travelled
CREB shutoff in dorsal hippocampal CA1 (CREB; 5×FAD mice): effectively prevented CREB shutoff
CREB immunoreactivity in NeuN positive cells in CA1 (CREB; 5×FAD mice, 18 weeks old): rescues the reduction of CREB immunoreactivity
CREB shutoff in dorsal hippocampal CA1 (CREB; TBA2.1 mice): effectively prevented CREB shutoff
CREB immunoreactivity in NeuN positive cells in CA1 (CREB; TBA2.1 mice, 11 weeks old): rescues the reduction of CREB immunoreactivity
amyloid load (TBA2.1 and 5×FAD mice [6]; 5×FAD mice): did not detect any effects
amyloid load (TBA2.1 and 5×FAD mice [6]; TBA2.1 mice): did not detect any effects
basal synaptic transmission (TBA2.1 and 5×FAD mice [7]; 5×FAD mice): not affected
basal synaptic transmission (TBA2.1 and 5×FAD mice [7]; TBA2.1 mice): not affected
late-phase LTP, fEPSP slope in the last 30 minutes of recordings (TBA2.1 and 5×FAD mice [7]; slices of Nitarsone-fed 5×FAD mice, postnatal week 19): rescued
late-phase LTP, fEPSP slope in the last 30 minutes of recordings (TBA2.1 and 5×FAD mice [7]; slices of Nitarsone-fed TBA2.1 mice, postnatal week 11): rescued
